Data published in patent US20180168208A1 (priority 2014, published 2018).
Read-outs that look alike come from different tables or passages of the source.

What was measured:
Assay in all cases: cell-based
T1R1/T1R3 receptor [1] = target: T1, T1R1/T1R3 receptor (Felis catus, UniProt E3UMS2); settings: for Activity: overall call: active or N/A (not active) on T1R1/T1R3
Source text: (§1) HEK293 cells that stably express T1R3 and inducibly express T1R1 were exposed to nucleotide derivatives alone to activate the umami receptor. Activation of the T1R1/T1R3 receptor was detected by a change in intracellular calcium levels using a calcium sensitive fluorescent dye. Cells that express T1R3 but not T1R1 were used as a control. A FLIPR® Tetra or a FlexStation® 3 was used for data capture.
as §1, with “alone or in combination with one or more amino acids and/or one or more nucleotides” for “alone”, “dye and/or a luminescent reporter system.” for “dye.”
as §1, with “transmembrane compounds” for “nucleotide derivatives”, “alone or in combination with one or more amino acids and/or one or more nucleotides” for “alone”
(§2) In each experiment, serial dilutions of up to 10 mM of the transmembrane compound were added to the T1R1/T1R3-expressing cells.

cat T1R1/T1R3 receptor = target: T2, cat T1R1/T1R3 receptor (Felis catus, UniProt A0ABI7Z2I4)
T2 sequence (A0ABI7Z2I4 171-420): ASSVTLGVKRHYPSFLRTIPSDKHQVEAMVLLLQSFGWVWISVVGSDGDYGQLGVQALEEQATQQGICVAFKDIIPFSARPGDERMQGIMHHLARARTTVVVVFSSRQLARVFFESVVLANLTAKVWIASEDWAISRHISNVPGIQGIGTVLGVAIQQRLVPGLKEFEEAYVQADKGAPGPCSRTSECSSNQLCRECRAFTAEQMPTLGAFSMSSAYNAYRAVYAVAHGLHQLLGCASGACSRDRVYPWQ
T2 sequence (Q49KI5 25-865 E206Q/N523D/F654L partner): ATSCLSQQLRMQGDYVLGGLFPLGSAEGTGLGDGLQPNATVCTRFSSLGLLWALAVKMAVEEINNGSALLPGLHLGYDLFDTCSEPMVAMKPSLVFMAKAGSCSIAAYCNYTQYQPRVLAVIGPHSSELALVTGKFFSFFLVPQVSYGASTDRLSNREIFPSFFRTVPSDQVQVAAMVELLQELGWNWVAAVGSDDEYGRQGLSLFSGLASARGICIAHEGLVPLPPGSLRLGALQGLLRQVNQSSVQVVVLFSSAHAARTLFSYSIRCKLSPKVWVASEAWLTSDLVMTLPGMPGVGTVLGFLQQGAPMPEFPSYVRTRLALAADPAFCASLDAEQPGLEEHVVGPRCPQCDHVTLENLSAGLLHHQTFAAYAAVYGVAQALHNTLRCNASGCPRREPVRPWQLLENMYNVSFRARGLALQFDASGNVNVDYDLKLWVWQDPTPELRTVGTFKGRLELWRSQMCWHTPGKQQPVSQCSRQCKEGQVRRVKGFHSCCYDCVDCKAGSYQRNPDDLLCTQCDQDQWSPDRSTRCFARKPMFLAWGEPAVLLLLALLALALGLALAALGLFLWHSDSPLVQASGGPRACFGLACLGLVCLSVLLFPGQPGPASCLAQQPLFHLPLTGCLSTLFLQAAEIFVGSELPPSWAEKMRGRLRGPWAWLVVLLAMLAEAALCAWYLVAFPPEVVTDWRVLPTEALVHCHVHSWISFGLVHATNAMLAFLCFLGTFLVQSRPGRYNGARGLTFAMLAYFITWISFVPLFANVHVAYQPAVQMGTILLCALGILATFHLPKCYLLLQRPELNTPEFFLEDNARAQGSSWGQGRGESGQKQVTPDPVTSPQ
Source text: as §1, with “alone or in combination with one or more amino acids and/or one or more nucleotides” for “alone”, “dye and/or a luminescent reporter system.” for “dye.”

T1R1/T1R3 receptor [2] = target: T1, T1R1/T1R3 receptor; format: cell-based
Source text: as §1, with “transmembrane compounds” for “nucleotide derivatives”, “alone or in combination with one or more amino acids and/or one or more nucleotides” for “alone”
as §2

[3] = EC50 (mM), +IMP (0.2 mM), in the presence of 0.2 mM IMP
[4] = T1R1/T1R3 EC50 +0.2 mM IMP, +0.2 mM IMP
[5] = T1R1/T1R3 EC50 +20 mM L-alanine + 0.2 mM IMP, +20 mM L-alanine + 0.2 mM IMP
[6] = in the presence of 0.2 mM IMP, relative to alanine
[7] = threshold concentration in the presence of 0.2 mM IMP
[8] = alone in buffer, read-out: T1R1/T1R3 EC50 alone in buffer
[9] = compound alone in buffer, read-out: EC50 (mM), +buffer (alone)
[10] = EC50 (mM), +Alanine (20 mM) + IMP (0.2 mM), in the presence of 20 mM alanine and 0.2 mM IMP
[11] = EC50 (effect with 0.2 mM IMP), positive controls measured with 0.2 mM IMP
[12] = EC50 (effect with 0.2 mM IMP), control compounds, with 0.2 mM IMP, Table 25
[13] = T1R1/T1R3 EC50 +20 mM L-alanine, +20 mM L-alanine

Row | Structure (SMILES) | Max resp % of IMP, +Alanine (20 mM) (T1R1/T1R3 receptor [1]) | EC50 (T1R1/T1R3 receptor [1]; [3]) | Max resp % of Ala, +IMP (0.2 mM) (T1R1/T1R3 receptor [1]; [6]) | Thres (mM), +Alanine (20 mM) (T1R1/T1R3 receptor [1]) | Thres (mM), +IMP (0.2 mM) (T1R1/T1R3 receptor [1]; [7]) | EC50 (T1R1/T1R3 receptor [2]; [11]) | EC50 (T1R1/T1R3 receptor [1]; [12]) | EC50 (cat T1R1/T1R3 receptor; read-out: EC50) | other results
1 | CC(=O)Nc1ccc(C(=O)Nc2cc(-c3ccccc3)nn2CCO)cc1 [4-acetamido-N-(1-(2-hydroxyethyl)-3-phenyl-1H-pyrazol-5-yl)benzamide] | 1.8% | > 1 mM | 58.8% | – | – | – | – | – | EC50 (T1R1/T1R3 receptor [1]; [4]): > 0.1 mM; EC50 (T1R1/T1R3 receptor [1]; [5]): > 0.1 mM
2 | CCCCc1nn(CC(=O)N2CCCC2)c(=O)n1Cc1ccccc1 [4-benzyl-3-butyl-1-(2-oxo-2-(pyrrolidin-1-yl)ethyl)-1H-1,2,4-triazol-5(4H)-one] | 129.9% | – | 193.2% | 0.3 mM | 0.1 mM | – | – | – | EC50 (T1R1/T1R3 receptor [1]; [4]): > 0.3 mM; EC50 (T1R1/T1R3 receptor [1]; [5]): > 0.3 mM
3 | O=P(O)(O)OP(=O)(O)OP(=O)(O)OC[C@H]1O[C@@H](n2cnc3c(Cl)ncnc32)[C@H](O)[C@@H]1O [6-Chloropurine riboside-5′-O-triphosphate] | 50.4% | – | 30.2% | 0.01 mM | 0.003 mM | – | – | – | EC50 (cat T1R1/T1R3 receptor): > 0.03 mM; Threshold (cat T1R1/T1R3 receptor): 0.01 mM; EC50 (T1R1/T1R3 receptor [1]; [8]): > 0.03 mM; EC50 (T1R1/T1R3 receptor [1]; [9]): > 0.3 mM; Activity (T1R1/T1R3 receptor [1]): active; EC50 (T1R1/T1R3 receptor [1]; read-out: EC50 (mM), +Alanine (20 mM)): > 0.3 mM; EC50 (T1R1/T1R3 receptor [1]; read-out: EC50 (mM), +Alanine (20 mM) + IMP (0.2 mM)): > 0.3 mM; EC50 (T1R1/T1R3 receptor [1]; read-out: EC50 (mM), +IMP (0.2 mM), in the presence of 0.2 mM IMP): > 0.3 mM; EC50 (T1R1/T1R3 receptor [1]; read-out: T1R1/T1R3 EC50 +0.2 mM IMP, +0.2 mM IMP): > 0.03 mM; EC50 (T1R1/T1R3 receptor [1]; read-out: T1R1/T1R3 EC50 +20 mM L-alanine): > 0.03 mM; EC50 (T1R1/T1R3 receptor [1]; read-out: T1R1/T1R3 EC50 +20 mM L-alanine + 0.2 mM IMP): > 0.03 mM
4 | Nc1nc2c(ncn2[C@@H]2O[C@H](COP(=O)(O)OP(=O)(O)O)[C@@H](O)[C@H]2O)c(=S)[nH]1 [6-Thioguanosine-5′-O-diphosphate] | 152.8% | – | 9.3% | 0.03 mM | – | – | – | – | EC50 (T1R1/T1R3 receptor [1]; [10]): 0.28 mM; Max resp ΔF/F, +IMP (0.2 mM) (T1R1/T1R3 receptor [1]; in the presence of 0.2 mM IMP): 0.0720 ΔF/F
5 | Nc1nc2c(ncn2[C@@H]2O[C@H](COP(=O)(O)O)[C@@H](O)[C@H]2O)c(=O)[nH]1 [GMP, guanosine monophosphate, reference compound] | – | – | – | – | – | 0.05 ± 0.004 mM | 0.09 ± 0.02 mM | – | EC50 (T1R1/T1R3 receptor [2]): 0.05 ± 0.02 mM; EC50 (T1R1/T1R3 receptor [2]; alone in buffer, read-out: EC50 - alone): 0.04 ± 0.01 mM; EC50 (cat T1R1/T1R3 receptor): 0.02 mM; Threshold (cat T1R1/T1R3 receptor): 0.008 mM
6 | N[C@@H](CS)C(=O)O [L-Cysteine, cysteine] | – | 43.9 mM | 74.6% | – | 10.0 mM | 39.5 ± 1.9 mM | 43.9 ± 5.6 mM | 39.5 ± 1.9 mM | Max resp ΔF/F, +IMP (0.2 mM) (T1R1/T1R3 receptor [1]; in the presence of 0.2 mM IMP): 0.5800 ΔF/F
7 | N[C@@H](Cc1c[nH]cn1)C(=O)O [L-Histidine, L-histidine] | – | 15.3 mM | 36.3% | – | 10.0 mM | 10.2 ± 1.7 mM | 15.3 ± 3.2 mM | 10.2 ± 1.7 mM | –
8 | CSCC[C@H](N)C(=O)O [L-Methionine, methionine] | – | – | – | – | – | 25.5 ± 3.7 mM | – | – | EC50 (cat T1R1/T1R3 receptor): 25.5 ± 3.7 mM; Max resp % of Ala, +IMP (0.2 mM) (T1R1/T1R3 receptor [1]): 45.0%; Thres (mM), +IMP (0.2 mM) (T1R1/T1R3 receptor [1]): 30.0 mM; EC50 (T1R1/T1R3 receptor [1]; EC50 (effect with 0.2 mM IMP)): 33.9 ± 1.5 mM; EC50 (T1R1/T1R3 receptor [1]; EC50 (mM), +IMP (0.2 mM)): 33.9 mM
9 | N[C@@H](Cc1ccccc1)C(=O)O [L-Phenylalanine, reference compound] | – | 0.5 mM | 75.9% | – | 0.1 mM | 1.9 ± 0.1 mM | 0.5 ± 0.1 mM | 1.9 ± 0.1 mM | Max resp ΔF/F, +IMP (0.2 mM) (T1R1/T1R3 receptor [1]; in the presence of 0.2 mM IMP): 0.5900 ΔF/F
10 | N[C@@H](CO)C(=O)O [L-Serine, serine] | – | 15.1 mM | 100.0% | – | 3.0 mM | 31.5 ± 2.3 mM | 15.1 ± 2.3 mM | 31.5 ± 2.3 mM | –
11 | N[C@@H](Cc1c[nH]c2ccccc12)C(=O)O [L-Tryptophan, tryptophan] | – | 0.5 mM | 86.8% | – | 0.1 mM | 0.9 ± 0.1 mM | 0.5 ± 0.1 mM | 0.9 ± 0.1 mM | –
12 | N[C@@H](Cc1ccc(O)cc1)C(=O)O [L-Tyrosine, tyrosine] | – | 9.3 mM | 38.0% | – | 3.0 mM | – | 9.3 ± 1.7 mM | 10.3 ± 0.9 mM | –
13 | O=C(NCCCCNC(=O)c1cccnc1)c1cccnc1 [N,N′-(butane-1,4-diyl)dinicotinamide] | 9.5% | – | 49.2% | 1.0 mM | 0.1 mM | – | – | – | –
14 | O=C(NCCc1ccccc1)c1ccccc1 [N-phenethylbenzamide] | 20.4% | 0.12 mM | 126.0% | 0.6 mM | 0.01 mM | – | – | – | EC50 (T1R1/T1R3 receptor [1]; [10]): 0.09 mM; EC50 (T1R1/T1R3 receptor [1]; EC50 (mM), +Alanine (20 mM), in the presence of 20 mM alanine): > 1 mM; EC50 (T1R1/T1R3 receptor [1]; [4]): 0.12 ± 0.03 mM; EC50 (T1R1/T1R3 receptor [1]; [13]): > 1 mM; EC50 (T1R1/T1R3 receptor [1]; [8]): 0.33 ± 0.01 mM; EC50 (T1R1/T1R3 receptor [1]; [9]): 0.33 mM; Max resp ΔF/F, +IMP (0.2 mM) (T1R1/T1R3 receptor [1]; in the presence of 0.2 mM IMP): 0.9800 ΔF/F
15 | O=C(NCCc1ccccc1)c1ccc2c(c1)OCO2 [N-phenethylbenzo[d][1,3]dioxole-5-carboxamide] | 11.3% | 0.04 mM | 92.0% | 1.0 mM | 0.01 mM | – | – | – | EC50 (T1R1/T1R3 receptor [1]; [10]): 0.03 mM; EC50 (T1R1/T1R3 receptor [1]; [4]): 0.04 ± 0.01 mM; EC50 (T1R1/T1R3 receptor [1]; [13]): > 1 mM; EC50 (T1R1/T1R3 receptor [1]; [8]): 0.12 ± 0.07 mM; EC50 (T1R1/T1R3 receptor [1]; [9]): 0.12 mM
16 | O=C(NCCc1ccccc1)c1cccnc1 [N-phenethylnicotinamide] | 83.6% | 0.35 mM | 149.5% | 0.1 mM | 0.03 mM | – | – | – | EC50 (T1R1/T1R3 receptor [1]; [10]): 0.22 mM; EC50 (T1R1/T1R3 receptor [1]; [4]): 0.35 ± 0.1 mM; EC50 (T1R1/T1R3 receptor [1]; [8]): 0.37 ± 0.02 mM; EC50 (T1R1/T1R3 receptor [1]; [9]): 0.37 mM
17 | CCOC(=O)NC(=O)C(c1ccccc1)c1ccccc1 [Ro 01-6128, reference compound] | 74.8% | – | 199.7% | 0.3 mM | 0.01 mM | – | – | – | Activity (T1R1/T1R3 receptor [1]): active
